The test addresses Mtb Pks13-TE domain (wild-type) (Mycobacterium tuberculosis, UniProt I6X8D2). Nature of the test: biochemical. Format: biochemical.
Setting [1] is: Pks13-TE, 20 μM 4-MUH, read-out: IC50.

Like-named read-outs stand apart in the source and are kept apart here. Where only a bound is given, the exact number is not on record here.

Chain of Mtb Pks13-TE domain (wild-type) (I6X8D2 1451-1733): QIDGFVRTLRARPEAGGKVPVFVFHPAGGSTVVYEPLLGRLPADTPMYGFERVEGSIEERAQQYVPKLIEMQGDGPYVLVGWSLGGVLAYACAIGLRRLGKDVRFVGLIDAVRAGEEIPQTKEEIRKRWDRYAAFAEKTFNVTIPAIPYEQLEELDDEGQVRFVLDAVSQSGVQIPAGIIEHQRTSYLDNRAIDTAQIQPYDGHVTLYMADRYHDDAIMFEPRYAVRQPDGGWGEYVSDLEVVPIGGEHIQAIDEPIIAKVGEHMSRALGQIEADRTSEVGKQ

In the case of `Cc1nc2c(CN3CCC(C)CC3)c(O)ccc2[nH]1` [compound 9], the IC50 under setting [1] worked out at 10 µM.

Consider `CCOC(=O)c1c(-c2ccccc2)oc2ccc(OC)c(CC3CCCCC3)c12` [compound 15], for which the IC50 (Pks13-TE, read-out: IC50 (μM), given as NB / NI) was > 20 µM.

On to `CCOC(=O)c1c(-c2ccc(O)cc2)oc2ccc(O)c(CN3CCCCC3)c12` [compound 22], for which the IC50 (Mtb Pks13-TE domain, mean ± s.d. of triplicates, read-out: IC50) came to 0.17 ± 0.02 µM and the IC50 under setting [1] came out at 0.19 µM.

Turning to `CCOC(=O)c1c(-c2ccccc2)oc2ccc(O)c(CN3CCCCC3=O)c12` [compound 52], the IC50 under setting [1] is > 20 µM.

Consider `CNC(=O)c1c(-c2ccccc2)oc2cc(O)cc(CN3CCC(O)CC3)c12` [compound 68], for which, under setting [1], the IC50 is > 20 µM.

Turning to `CCOC(=O)c1c(-c2ccc(F)cc2)oc2cc(O)cc(CC[N+](C)(C)C)c12` [compound 75], the IC50 under setting [1] is > 20 µM.

`CC(C)NCCc1cc(O)cc2oc(-c3ccc(F)cc3)c(CO)c12` [compound 76]: under setting [1], the IC50 is > 20 µM.

Turning to `CCOC(=O)c1c(-c2ccc(F)cc2)oc2cc(O)cc(CCNC(CO)CO)c12` [compound 78], under setting [1], the IC50 came out at 13 µM.

With `CCOC(=O)c1c(-c2ccc(F)cc2)oc2cc(O)cc(CCNCC(O)CO)c12` (centres unmarked) [compound 79], the IC50 under setting [1] was > 20 µM.

As for `CCOC(=O)c1c(-c2ccc(F)cc2)oc2cc(O)cc(CCNCCN)c12` [compound 80], the IC50 under setting [1] was > 40 µM.

As to `CCOC(=O)c1c(-c2ccc(F)cc2)oc2cc(O)cc(CCNC(=O)C(C)N)c12` (centres unmarked) [compound 81], the IC50 under setting [1] was > 40 µM.

With `Cc1nc2c(CN3CCCC3)c(O)ccc2[nH]1` [compound 111], the IC50 under setting [1] is 10 µM.

Take `CCOC(=O)c1c(-c2ccccc2)oc2ccc(O)c(CN3CCC(F)(F)CC3)c12` [compound 119]: the IC50 under setting [1] was 0.8 µM.

Take `CNC(=O)c1c(-c2ccccc2)oc2ccc(O)c(CCN3CCS(=O)(=O)CC3)c12` [compound 138]: under setting [1], the IC50 is > 40 µM.

`CNC(=O)c1c(-c2ccccc2)oc2ccc(O)c(CCN3CCNC(=O)C3)c12` [compound 139]: under setting [1], the IC50 was > 40 µM.

Take `CNC(=O)c1c(-c2ccccc2)oc2ccc(O)c(CCN(C(C)C)C(C)C)c12` [compound 140]: the IC50 under setting [1] was > 40 µM.

With `CNC(=O)c1c(-c2ccccc2)oc2ccc(O)c(CCN3CCCCC3)c12` [compound 143], the IC50 under setting [1] was > 20 µM.

`CNC(=O)c1c(-c2ccccc2)oc2ccc(O)c(CCNc3ccccc3)c12` [compound 144]: under setting [1], the IC50 was > 40 µM.

On to `CNC(=O)c1c(-c2ccccc2)oc2ccc(O)c(CCNC3CCCCC3)c12` [compound 145], for which the IC50 under setting [1] stood at 10 µM.

As to `CNC(=O)c1c(-c2ccccc2)oc2ccc(O)c(CCNC3CCC3)c12` [compound 147], the IC50 under setting [1] was 3.5 µM.

Take `CCOC(=O)c1c(-c2ccccc2)oc2ccc(O)c(CCN3[C@H](C)CCC[C@@H]3C)c12` [compound 150]: the IC50 under setting [1] was > 40 µM.

`CNC(=O)c1c(-c2ccccc2)oc2ccc(O)c(CCN3CCC(O)CC3)c12` [compound 152]: the IC50 under setting [1] was > 40 µM.

Take `CNC(=O)c1c(-c2ccccc2)oc2ccc(O)c(CCN3CCC(CO)CC3)c12` [compound 153]: under setting [1], the IC50 is > 40 µM.

Consider `CNC(=O)c1c(-c2ccccc2)oc2ccc(O)c(CCN3CCCC(CO)C3)c12` (centres unmarked) [compound 154], for which the IC50 under setting [1] was > 20 µM.

Regarding `CNC(=O)c1c(-c2ccccc2)oc2ccc(O)c(CCN3CCCCC3CO)c12` (centres unmarked) [compound 155], the IC50 under setting [1] is > 40 µM.

Turning to `CNC(=O)c1c(-c2ccccc2)oc2ccc(O)c(CCN3CCCCC3CCO)c12` (centres unmarked) [compound 156], the IC50 under setting [1] was > 40 µM.

In the case of `CNC(=O)c1c(-c2ccccc2)oc2ccc(O)c(CCN3CCN(CCO)CC3)c12` [compound 157], the IC50 under setting [1] was > 40 µM.

`CNC(=O)c1c(-c2ccccc2)oc2ccc(O)c(CCN3CCC(CCO)CC3)c12` [compound 158]: the IC50 under setting [1] is 20 µM.

Take `CNC(=O)c1c(-c2ccccc2)oc2ccc(O)c(CCCN3CC(O)C(O)C3)c12` (centres unmarked) [compound 163]: the IC50 under setting [1] was > 40 µM.

For `CCOC(=O)c1c(-c2ccccc2)oc2ccc(O)c(CCCN3CCCC(CO)C3)c12` (centres unmarked) [compound 169], the IC50 under setting [1] is > 40 µM.

On to `CCOC(=O)c1c(-c2ccccc2)oc2ccc(O)c(CCCN3CCCC3CCO)c12` (centres unmarked) [compound 170], for which the IC50 under setting [1] was 4.3 µM.

For the molecule `CCOC(=O)c1c(-c2ccccc2)oc2ccc(O)c(CCCN3CCSC3)c12` [compound 173], under setting [1], the IC50 is 5 µM.

With `CCOC(=O)c1c(-c2ccccc2)oc2ccc(O)c(CCC3CCNCC3)c12` [compound 176], the IC50 under setting [1] was > 40 µM.

With `CCOC(=O)c1c(-c2ccccc2)oc2ccc(O)c(CCN3CCSC3C)c12` (centres unmarked) [compound 177], the IC50 under setting [1] worked out at 1 µM.

With `CCOC(=O)c1c(-c2ccccc2)oc2ccc(O)c(CCN3CCC(CCCCO)C3)c12` (centres unmarked) [compound 178], the IC50 under setting [1] was determined as 2 µM.

`CCOC(=O)c1c(-c2ccccc2)oc2ccc(O)c(CCCN3CCC[C@H]3C)c12` [compound 180]: the IC50 under setting [1] was determined as 1.9 µM.

For `CCOC(=O)c1c(-c2ccccc2)oc2ccc(O)c(CCCN3CCCC3C/C=C/C(=O)NC)c12` (centres unmarked) [compound 181], the IC50 under setting [1] came to 2.5 µM.

On to `CCOC(=O)c1c(-c2ccccc2)oc2ccc(O)c(CCCN3CCCC3CCC(=O)NC)c12` (centres unmarked) [compound 184], for which the IC50 under setting [1] was > 10 µM.

For `CCOC(=O)c1c(-c2ccccc2)oc2ccc(O)c(CCN3CCC(CCCC(N)=O)C3)c12` (centres unmarked) [compound 187], the IC50 under setting [1] was 0.5 µM.

Regarding `CNC(=O)c1c(-c2ccccc2)oc2ccc(O)c(CCCNCc3ncco3)c12` [compound 190], the IC50 under setting [1] was > 40 µM.

For `CCOC(=O)c1c(-c2ccccc2)oc2ccc(O)c(CCN3CCCOC3)c12` [compound 193], the IC50 under setting [1] came out at 5 µM.

For the molecule `CNC(=O)c1c(-c2ccccc2)oc2ccc(O)c(CCCN3CCCC4(CC(=O)C4)C3)c12` [compound 194], under setting [1], the IC50 was > 40 µM.

Take `CNC(=O)c1c(-c2ccccc2)oc2ccc(O)c(CCCNCC(C)c3ncco3)c12` (centres unmarked) [compound 196]: the IC50 under setting [1] is > 20 µM.

Consider `CCOC(=O)c1c(-c2ccccc2)oc2ccc(O)c(CCCN3CC(O)C3)c12` [compound 197], for which the IC50 under setting [1] was determined as 7.5 µM.

As for `CCOC(=O)c1c(-c2ccccc2)oc2ccc(O)c(CCCN3CC(CO)C3)c12` [compound 198], the IC50 under setting [1] was found to be 5 µM.

Take `CNC(=O)c1c(-c2ccccc2)oc2ccc(O)c(CCCN3CCC4(CC3)CC(=O)C4)c12` [compound 207]: the IC50 under setting [1] worked out at 10 µM.

For `CN(C)C(=O)c1c(-c2ccc(O)cc2)oc2cc(O)cc(CCCN3CCC3)c12` [compound 208], under setting [1], the IC50 was determined as 4 µM.

On to `CN(C)CCc1c(O)ccc2oc(-c3ccc(O)cc3)c(C(=O)N(C)C)c12` [compound 210], for which the IC50 under setting [1] turned out to be 12 µM.

For `CCOC(=O)c1c(-c2ccc(F)cc2)oc2cc(O)cc(CCNC3CCC(O)CC3)c12` (centres unmarked) [compound 225], the IC50 under setting [1] is > 40 µM.

With `CCOC(=O)c1c(-c2ccc(F)cc2)oc2cc(O)cc(CCNC(=O)C3CCCN3)c12` (centres unmarked) [compound 226], under setting [1], the IC50 was > 40 µM.

Regarding `CCOC(=O)c1c(-c2ccccc2)oc2ccc(O)c(CCN3CC(C#N)C3)c12` [compound 227], the IC50 under setting [1] was > 20 µM.

For `CNC(=O)c1c(-c2ccccc2)oc2ccc(O)c(CCN3CCC(C(F)(F)F)CC3)c12` [compound 232], under setting [1], the IC50 was > 20 µM.

`CNC(=O)c1c(-c2ccccc2)oc2ccc(O)c(CCN3CCCC(C(F)(F)F)C3)c12` (centres unmarked) [compound 233]: the IC50 under setting [1] is > 10 µM.

`CCOC(=O)c1c(-c2ccccc2)oc2ccc(O)c(CCCC3CCCC3)c12` [compound 236]: the IC50 under setting [1] was > 10 µM.

On to `CNC(=O)c1c(-c2ccccc2)oc2ccc(O)c(CCN3CCCCC3C(F)(F)F)c12` (centres unmarked) [compound 237], for which, under setting [1], the IC50 was > 20 µM.

As for `CNC(=O)c1c(-c2ccccc2)oc2ccc(O)c(CCC3CCOC3=O)c12` (centres unmarked) [compound 240], under setting [1], the IC50 was > 40 µM.

Regarding `CCOC(=O)c1c(-c2ccccc2)oc2ccc(O)c(CCNC3CCOCC3)c12` [compound 241], under setting [1], the IC50 is > 20 µM.

As for `CCOC(=O)c1c(-c2ccc(F)cc2)oc2cc(O)cc(CCN)c12` [compound 242], the IC50 under setting [1] is > 20 µM.

For `CCOC(=O)c1c(-c2ccc(F)cc2)oc2cc(O)cc(CCNC(=O)OCc3ccccc3)c12` [compound 243], the IC50 under setting [1] was > 40 µM.

As to `CCOC(=O)c1c(-c2ccccc2)oc2ccc(O)c(CCN[C@@H](CC(N)=O)C(=O)O)c12` [compound 246], the IC50 under setting [1] came out at 20 µM.

Consider `CCOC(=O)c1c(-c2ccccc2)oc2ccc(O)c(CCNC(C(=O)O)C(F)(F)F)c12` (centres unmarked) [compound 247], for which the IC50 under setting [1] is > 40 µM.

Turning to `CNC(=O)c1c(-c2ccccc2)oc2ccc(O)c(CCN[C@@H](Cc3cnc[nH]3)C(=O)OC)c12` [compound 250], the IC50 under setting [1] is 2.4 µM.

Turning to `CNC(=O)c1c(-c2ccccc2)oc2ccc(O)c(CCNCC3CCCO3)c12` (centres unmarked) [compound 252], under setting [1], the IC50 came to 1.6 µM.

Take `CCOC(=O)c1c(-c2ccccc2)oc2ccc(O)c(CCNC3CCOC3)c12` (centres unmarked) [compound 254]: under setting [1], the IC50 is 2.7 µM.

Turning to `CCOC(=O)c1c(-c2ccccc2)oc2ccc(O)c(CCCNCc3ccoc3)c12` [compound 255], the IC50 under setting [1] is 2.1 µM.

Consider `CCOC(=O)c1c(-c2ccccc2)oc2ccc(O)c(CCNC(CO)Cc3cnc[nH]3)c12` (centres unmarked) [compound 256], for which the IC50 under setting [1] is 1.5 µM.

As to `CNC(=O)c1c(-c2ccccc2)oc2ccc(O)c(CCN3CC(CO)(CBr)C3)c12` [compound 257], the IC50 under setting [1] stood at 1.25 µM.

For the molecule `CNC(=O)c1c(-c2ccccc2)oc2ccc(O)c(CCN3CCC(CO)(CBr)C3)c12` (centres unmarked) [compound 258], the IC50 under setting [1] came to 2.5 µM.

`CNC(=O)c1c(-c2ccccc2)oc2ccc(O)c(CCN[C@@H](Cc3cnc[nH]3)C(=O)NC)c12` [compound 259]: under setting [1], the IC50 was determined as 1 µM.

Consider `CNC(=O)c1c(-c2ccccc2)oc2ccc(O)c(CCN[C@H](C)Cc3cnc[nH]3)c12` [compound 260], for which the IC50 under setting [1] was 4 µM.

As to `CNC(=O)c1c(-c2ccc(F)cc2)oc2cc(O)cc(CCN[C@@H](Cc3ccco3)C(=O)O)c12` [compound 262], the IC50 under setting [1] is > 40 µM.

For `CCOC(=O)c1c(-c2ccccc2)oc2ccc(O)c(CCN3CCC4(COC4)C3)c12` [compound 264], under setting [1], the IC50 was determined as 2.5 µM.

For the molecule `CCOC(=O)c1c(-c2ccccc2)oc2ccc(O)c(CCN3CC4COCC4C3)c12` (centres unmarked) [compound 266], the IC50 under setting [1] is 10 µM.

Source of the values: patent US20180111913A1, “SUBSTITUTED BENZOFURAN DERIVATIVES AS NOVEL ANTIMYCOBACTERIAL AGENTS” (priority 2015, published 2018).
